Assay type in all cases: in vivo
For test [1], the system named is female Aedes aegypti (Orlando strain, 1952). As to the kind of experiment: Minimum effective dosage testing, human skin (treated cloth patch). Conditions: treated cloth patch, 1 min test, high dose 1.5 mg/cm^2. The procedure: The test mosquitoes were female Aedes aegypti (Orlando strain, 1952) from the colony maintained at United States Department of Agriculture-Agricultural Research Service-Center for Medical, Agricultural and Veterinary Entomology (USDA-ARS-CMAVE) in Gainesville, Fla. Pupae were obtained from the colony and newly emerged mosquitoes were maintained on 10% sugar water and kept in laboratory cages at an ambient temperature of 28±1° C. and RH of 35-60%. Host seeking behavior was pre-selected in nulliparous female mosquitoes aged 6-10 days, indicated by flight upwind towards a potential host, from stock cages using a hand-draw box and trapped in a collection trap.
After 500 (±10%) females were collected in the trap, they were transferred to a test cage (approximately 59,000 cm^3 with dimensions 45×37.5×35 cm) and allowed to acclimatize for 17.5 (±2.5) min before testing was initiated. Just prior to the experiment, the pieces of treated cloth are removed from the vials and stapled onto card stock tabs (5×3 cm). Each piece of the cards and the assembly were hung on a drying rack using masking tape for 3-5 min. Participants in the study used latex gloves to pull a nylon stocking over their arm. A Velcro™-sealed vinyl sleeve was then placed over the forearm. […] The purpose of the nylon stocking was to produce a barrier between the dried cloth and the skin, thereby avoiding direct contact of chemical to skin. The dried cloth assembly was affixed over the opening in the sleeve and held in place with masking tape. Participants then inserted their arm with the sleeve and patch into a screened cage that contained female Ae. Aegypti mosquitoes. Tests were conducted on each control or treated patch for 1 min. A control patch (acetone solvent only, then dried) was tested prior to the start of experiments and evaluation of the same untreated control patch after every 10 tests. If 5 landings were not received on the control patch in 30 s, then tests were discontinued for 60 min. At the conclusion of testing the control patch was tested again. If five landings were not received within 30 s, the data for the replicate was discarded. When testing a patch treated with a candidate repellent, if approximately 1% or 5 mosquito bites were received during this one minute test, this compound was considered to have failed, i.e., was not repellent at that concentration. If a treated cloth patch received 0-4 bites within a minute, then it was considered as passed, i.e., repellent at that concentration of the test compound. The median concentration patch was tested in the first round and treated patches were then tested successively at higher or lower concentrations depending upon whether the previous patch failed or passed, respectively.
The time interval between each tested patch was <90 seconds until 10 successive tests had been conducted. If appreciable, mortality had occurred during testing, the number of knocked down mosquitoes are estimated and additional female mosquitoes are added to the cage to keep the available mosquitoes at approximately 500. The estimate of the MED was the lowest concentration that passed for each candidate. Observed MED values for each candidate compound were averaged across participants and reported as a mean MED±standard error.

The subject of test [2] is Northern house mosquitoes (Culex pipiens). The test can be described thus: Short-term spatial repellency, static air repellency chamber. The settings on record: for pest or weed control at 0.5 %: Culex pipiens. The procedure:
(§1) Northern house mosquitoes (Culex pipiens), a primary carrier of West Nile virus in eastern North America, were obtained from an established colony in the Medical Entomology Laboratory in the Department of Entomology at Iowa State University of Science and Technology, Ames Iowa. Mosquito rearing was performed by established protocols that are maintained by the Medical Entomology Laboratory. Repellency bioassays were performed with adult female mosquitoes that emerged 5-7 days previously. […] Mosquitoes, prior to testing, were held at 27° C., 80% relative humidity, and on a 16:8 hr light:dark photoperiod.
Repellency bioassays were performed using a static air repellency chamber, which has been described in various publications by the Pesticide Toxicology Laboratory at Iowa State University of Science and Technology, Ames, Iowa Briefly, a 9-cm×60-cm glass tube was used to monitor the distribution of mosquitoes at 15 min, 30 min, 60 min, 90 min, 120 min, and 150 min after introducing mosquitoes into the static air repellency chamber. […] One end of the spatial chamber contained a treated filter paper, whereas the other (untreated) end of the spatial chamber was not treated with compound. Controls contained filter papers treated with acetone, the solvent used to make the 0.5% solutions. Each end of the repellency chamber was secured with a 100-mm Petri dish using celluloid tape. After securing the petri dishes with corresponding treated or untreated filter papers to the spatial chamber, mosquitoes were anesthetized with carbon dioxide, and approximately 20 female mosquitoes were placed into each repellency chamber for one replicate. The opening of the spatial repellency chamber was secured with celluloid tape to prevent their escape. Chambers were oriented in opposite directions from the previous replicate to account for any directional effect. Four replicates were performed for data analysis for both the control and treatment groups.
Data for spatial repellency, the percentage repellency, is reported at each of the respective time points in the figures and tables mentioned below. The percentage spatial repellency is the examination of the distribution of mosquitoes and is calculated using the following equation: […]

For test [3] the test system is unchanged. As to the kind of experiment: Long-term spatial repellency, static air repellency chamber, filter papers air-dried 5 hours. Conditions: Culex pipiens. The procedure:
as §1, with “were” for “emerged”, “post-emergent.” for “previously.”
Repellency bioassays were performed using a static air repellency chamber, which has been described in various publications by the Pesticide Toxicology Laboratory at Iowa State University of Science and Technology, Ames, Iowa Briefly, a 9-cm×60-cm glass tube was used to monitor the distribution of mosquitoes at 15 min, 30 min, 60 min, 90 min, 120 min, and 150 min after introducing mosquitoes into the static air repellency chamber. Treated filter papers were treated with 1 mL of 0.5% solution in acetone of the terpenoid analogs created in the lab and were exposed to ambient air for 5 hours before they were introduced into the spatial chamber for testing. This is a slight modification of the method described in Example 2, so as to evaluate the residual repellent character of these compounds on a treated surface after 5 hours. One end of the spatial chamber contained a treated filter paper, whereas the other (untreated) end of the spatial chamber was not treated with compound. Controls contained filter papers treated with acetone, the solvent used to make the 0.5% solutions. Each end of the repellency chamber was secured with a 100-mm Petri dish using celluloid tape. After securing the petri dishes with corresponding treated or untreated filter papers to the spatial chamber, mosquitoes were anesthetized with carbon dioxide, and approximately 20 female mosquitoes were placed into each repellency chamber for one replicate. The opening of the spatial repellency chamber was secured with celluloid tape to prevent their escape. Chambers were oriented in opposite directions from the previous replicate to account for any directional effect. Four replicates were performed for data analysis for both the control and treatment groups.
Data for spatial repellency, the percentage repellency, is reported at each of the respective time points in the figures and tables mentioned below in this disclosure. The percentage spatial repellency is the examination of the distribution of mosquitoes and is calculated using the following equation: […]

[4] abbreviates: 0.25 h, filter paper, 1 mL of 0.5% solution in acetone, air-dried 15 min, 15 min after introduction, read-out: Short-term Percentage repellency 15 min.
Setting [5] is: 1.5 h, filter paper, 1 mL of 0.5% solution in acetone, air-dried 15 min, 90 min, read-out: Short-term Percentage repellency 90 min.
Where [6] appears, read: 2.5 h, filter paper, 1 mL of 0.5% solution in acetone, air-dried 15 min, 150 min, read-out: Short-term Percentage repellency 150 min.
[7] abbreviates: 0.25 h, 1 mL of 0.5% solution in acetone, air-dried 5 hours, 15 min, read-out: Long-term Percentage repellency 15 min.
Setting [8] is: 1.5 h, 1 mL of 0.5% solution in acetone, air-dried 5 hours, 90 min, read-out: Long-term Percentage repellency 90 min.
Where [9] appears, read: 2.5 h, 1 mL of 0.5% solution in acetone, air-dried 5 hours, 150 min, read-out: Long-term Percentage repellency 150 min.

Take `O=C(C=Cc1ccccc1)OCCO` [2-hydroxyethyl cinnamate]: the “Minimum Effective Dosage, Subject 3” value in test [1] worked out at 0.094 mg/cm^2.
As for `CC(C)=CCCC(C)CCOC(=O)C1(C)CCC1` (centres unmarked) [Compound 2106, citronellyl 1-methylcyclobutanecarboxylate], the pest or weed control at 0.5 % in test [2] (setting [4]) was determined as 30%; in test [2] (setting [5]), 60%; in test [2] (setting [6]), 67.5%; in test [3] (setting [7]) it was 15%; in test [3] (setting [8]), 10%; in test [3] (setting [9]), 15%.
In the case of `CC(C)=CCCC(C)CCOC(=O)C1CCCC1` (centres unmarked) [Compound 2119, citronellyl cyclopentanecarboxylate], the pest or weed control at 0.5 % in test [2] (setting [4]) is -1.25%; in test [2] (setting [5]), 33.8%; in test [2] (setting [6]) it was 52.5%; in test [3] (setting [7]), 20%; in test [3] (setting [8]), 55%; in test [3] (setting [9]), 45%.
For the molecule `C=CC(C)(C)OC(=O)CC(C)CCC=C(C)C` (centres unmarked) [Compound 2170, tert-prenyl citronellate], the pest or weed control at 0.5 % was 80% in test [2] (setting [4]); 92.5% in test [2] (setting [5]); 82.5% in test [2] (setting [6]); 2.5% in test [3] (setting [7]); 7.5% in test [3] (setting [8]); -2.5% in test [3] (setting [9]).
`CC(=O)CCC(=O)OCCC(C)CCC=C(C)C` (centres unmarked) [Compound 2183, citronellyl levulinate]: the pest or weed control at 0.5 % in test [2] (setting [4]) was 35%; in test [2] (setting [5]), 45%; in test [2] (setting [6]), 55%; in test [3] (setting [7]) it was 35%; in test [3] (setting [8]) it was 45%; in test [3] (setting [9]), 55%.
Take `CC(C)=CCCC(C)CCOC(=O)c1ccco1` (centres unmarked) [Compound 2186, citronellyl 2-furoate]: in test [2] (filter paper treated with 0.1%, FIG. 6), the “Short-term repellency at low concentration, in words” value is “significant levels of repellency”. Moreover, the results for the pest or weed control at 0.5 % in test [3] (setting [7]), in test [3] (setting [8]) and in test [3] (setting [9]) were 25%, 42.5% and 40%, respectively.
Consider `CC(C)=CCCC(C)CCOC(=O)C(F)F` (centres unmarked) [Compound 2192, citronellyl difluoroacetate], for which the pest or weed control at 0.5 % is 42.5% in test [2] (0.25 h, read-out: Short-term Percentage repellency 15 min); 95% in test [2] (1.5 h, read-out: Short-term Percentage repellency 90 min); 95% in test [2] (2.5 h, read-out: Short-term Percentage repellency 150 min); 50% in test [3] (0.25 h, read-out: Long-term Percentage repellency 15 min); 72.5% in test [3] (1.5 h, read-out: Long-term Percentage repellency 90 min); 65% in test [3] (2.5 h, read-out: Long-term Percentage repellency 150 min).
`CC(C)=CCCC(C)CCOC(=O)C(C)C` (centres unmarked) [Compound 2204, citronellyl isobutyrate]: the pest or weed control at 0.5 % was 25% in test [2] (setting [4]); 80% in test [2] (setting [5]); 90% in test [2] (setting [6]); -5% in test [3] (setting [7]); 7.5% in test [3] (setting [8]); 10% in test [3] (setting [9]).
`CC(C)=CCCC(C)CCOC(=O)C1CC(=O)C1` (centres unmarked) [Compound 3067, citronellyl 3-oxocyclobutanecarboxylate]: the pest or weed control at 0.5 % was determined as 47.5% in test [2] (setting [4]); 60% in test [2] (setting [5]); 62.5% in test [2] (setting [6]); 12.5% in test [3] (setting [7]); 0% in test [3] (setting [8]); 25% in test [3] (setting [9]).
Turning to `CC(C)=CCCC(C)CCOC(=O)C1CC(C)C1` (centres unmarked) [Compound 3068, citronellyl 3-methylcyclobutanecarboxylate], the pest or weed control at 0.5 % was 22.5% in test [2] (setting [4]); 32.5% in test [2] (setting [5]); 42.5% in test [2] (setting [6]); 22.5% in test [3] (setting [7]); 32.5% in test [3] (setting [8]); 42.5% in test [3] (setting [9]).
With `CCN(CC)C(=O)c1cccc(C)c1` [N,N-diethyl-meta-toluamide (DEET), N,N-diethyl-meta-toluamide, reference compound], the pest or weed control at 0.5 % in test [2] (setting [4]) was 20%; in test [2] (setting [5]), 50%; in test [2] (setting [6]), 56.7%; in test [3] (setting [7]), 32.5%; in test [3] (setting [8]), 32.5%; in test [3] (setting [9]), 45%.
On to `CC(C)=CCCC(C)CCO` (centres unmarked) [citronellol, reference compound], for which the pest or weed control at 0.5 % in test [2] (setting [4]) turned out to be 32.5%; in test [2] (setting [5]), 80%; in test [2] (setting [6]), 87.5%; in test [3] (setting [7]), 30%; in test [3] (setting [8]), 25%; in test [3] (setting [9]), 25%.

Source of the values: patent US11485701B2, “Insect repellent compounds and compositions, and methods thereof” (Iowa State University Research Foundation, Inc., priority 2016, dated 2022).
